According to patent publication US11572590B2, “Methods for evaluating tumor cell spheroids using 3D microfluidic cell culture device” (Dana-Farber Cancer Institute, Inc., priority 2017, dated 2023):
Like-named read-outs stand apart in the source and are kept apart here.

Legend:
off-target kinases [1] = target: off-target kinases (Homo sapiens, UniProt P07949, Y791F); assay: SelectScreen Kinase Profiling, single point inhibition and IC50 for off-target kinases; assay type: biochemical; conditions: RET Y791F, ATP Km app, ZLYTE
Chain of off-target kinases (Homo sapiens, UniProt P07949, Y791F) (P07949 29-1114 Y791F): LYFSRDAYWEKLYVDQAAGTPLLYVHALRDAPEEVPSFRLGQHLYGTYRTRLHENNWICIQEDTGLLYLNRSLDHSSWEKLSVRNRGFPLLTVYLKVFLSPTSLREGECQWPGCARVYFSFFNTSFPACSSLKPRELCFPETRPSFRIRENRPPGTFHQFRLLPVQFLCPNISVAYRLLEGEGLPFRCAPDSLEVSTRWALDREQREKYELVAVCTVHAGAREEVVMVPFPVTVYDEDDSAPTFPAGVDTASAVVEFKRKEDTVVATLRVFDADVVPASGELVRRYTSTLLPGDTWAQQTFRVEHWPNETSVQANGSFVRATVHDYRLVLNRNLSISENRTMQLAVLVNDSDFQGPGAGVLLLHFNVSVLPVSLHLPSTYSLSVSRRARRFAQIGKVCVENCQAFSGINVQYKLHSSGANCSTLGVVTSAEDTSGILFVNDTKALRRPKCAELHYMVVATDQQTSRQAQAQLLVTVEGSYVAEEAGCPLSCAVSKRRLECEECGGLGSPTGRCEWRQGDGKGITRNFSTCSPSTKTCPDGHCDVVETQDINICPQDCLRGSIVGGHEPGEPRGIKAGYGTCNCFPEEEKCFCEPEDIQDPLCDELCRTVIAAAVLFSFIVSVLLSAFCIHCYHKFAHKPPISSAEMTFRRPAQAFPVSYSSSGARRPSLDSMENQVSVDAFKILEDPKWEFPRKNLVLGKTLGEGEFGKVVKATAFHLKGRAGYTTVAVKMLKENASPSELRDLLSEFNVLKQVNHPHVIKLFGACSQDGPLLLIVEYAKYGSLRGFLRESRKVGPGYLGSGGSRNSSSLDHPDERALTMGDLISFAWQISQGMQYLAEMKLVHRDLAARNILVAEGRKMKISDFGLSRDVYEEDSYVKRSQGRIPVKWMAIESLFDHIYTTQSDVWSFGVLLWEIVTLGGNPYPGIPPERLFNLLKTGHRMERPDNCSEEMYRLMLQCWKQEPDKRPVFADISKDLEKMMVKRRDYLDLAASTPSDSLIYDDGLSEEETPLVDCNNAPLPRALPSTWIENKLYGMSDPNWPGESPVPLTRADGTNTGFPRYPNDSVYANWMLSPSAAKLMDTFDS

off-target kinases [2] = target: T1, off-target kinases (Homo sapiens, UniProt Q8TDC3); assay: as above; assay type: biochemical; conditions: BRSK1 (SAD1), ATP Km app, ZLYTE
T1 sequence (Q8TDC3 1-778): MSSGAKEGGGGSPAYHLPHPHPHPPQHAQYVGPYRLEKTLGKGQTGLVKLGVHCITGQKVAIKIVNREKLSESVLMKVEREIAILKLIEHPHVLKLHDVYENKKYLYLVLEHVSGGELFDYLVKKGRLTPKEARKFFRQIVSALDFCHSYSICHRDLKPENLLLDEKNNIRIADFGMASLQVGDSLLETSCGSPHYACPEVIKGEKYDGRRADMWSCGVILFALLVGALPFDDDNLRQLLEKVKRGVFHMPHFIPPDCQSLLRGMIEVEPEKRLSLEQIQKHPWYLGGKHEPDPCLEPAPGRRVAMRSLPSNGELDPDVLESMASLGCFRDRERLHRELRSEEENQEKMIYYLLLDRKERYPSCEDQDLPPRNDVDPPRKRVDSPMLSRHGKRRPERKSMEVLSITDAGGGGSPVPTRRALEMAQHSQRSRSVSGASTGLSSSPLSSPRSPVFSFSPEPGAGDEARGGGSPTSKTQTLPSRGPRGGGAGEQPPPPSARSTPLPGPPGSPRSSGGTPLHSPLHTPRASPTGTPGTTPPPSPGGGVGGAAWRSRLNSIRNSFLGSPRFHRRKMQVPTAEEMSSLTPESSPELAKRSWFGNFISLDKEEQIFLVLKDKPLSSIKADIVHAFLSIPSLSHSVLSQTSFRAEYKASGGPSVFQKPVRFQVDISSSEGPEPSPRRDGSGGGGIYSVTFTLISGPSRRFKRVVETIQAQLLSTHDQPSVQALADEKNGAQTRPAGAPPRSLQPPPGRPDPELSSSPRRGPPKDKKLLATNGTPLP

Compound: N#Cc1cc(-c2ncnc(Nc3ccc(N4CCN(C5COC5)CC4)cc3)n2)ccc1OC1CCOCC1 [Compound 1, 5-(4-((4-(4-(oxetan-3-yl)piperazin-1-yl)phenyl)amino)-1,3,5-triazin-2-yl)-2-((tetrahydro-2H-pyran-4-yl)oxy)benzonitrile]
- inhibition (off-target kinases [1]; read-out: % Inhibition 1): 57%
- inhibition (off-target kinases [1]; read-out: % Inhibition 2): 43%
- inhibition (off-target kinases [1]; read-out: % Inhibition Avg): 50%
- inhibition (off-target kinases [2]; read-out: % Inhibition 1): 92%
- inhibition (off-target kinases [2]; read-out: % Inhibition 2): 89%
- inhibition (off-target kinases [2]; read-out: % Inhibition Avg): 90%
